Structures are written as SMILES. Converted amounts (≈) assume the structure as drawn.

Assay type in all cases: functional
The test system of assay [1] is Staphylococcus aureus. Kind of assay: Antimicrobial activity against compound treated Staphylococcus aureus harboring mgrA C12S mutant gene retro-orbitally infected into mouse assessed as reduction in bacterial CFU in kidney at 10 ug/ml relative to control.
For assay [2], the system named is Staphylococcus aureus. Kind of assay: Antimicrobial activity against compound treated Staphylococcus aureus harboring mgrA C12S mutant gene retro-orbitally infected into mouse assessed as reduction in bacterial CFU in liver at 10 ug/ml relative to control.
For assay [3], the system named is Staphylococcus aureus. Briefly: Antimicrobial activity against Staphylococcus aureus.
For assay [4], the system named is Staphylococcus aureus. Briefly: Antimicrobial activity against Staphylococcus aureus expressing mgrA C12S mutant gene.

For the molecule `CC[C@H]1OC(=O)[C@H](C)[C@@H](O[C@H]2C[C@@](C)(OC)[C@@H](O)[C@H](C)O2)[C@H](C)[C@@H](O[C@@H]2O[C@H](C)C[C@H](N(C)C)[C@H]2O)[C@](C)(O)C[C@@H](C)C(=O)[C@H](C)[C@@H](O)[C@]1(C)O` [ERYTHROMYCIN], the “fold change (FC)” value was 10000 in assay [1] and 100 in assay [2].
By MIC is commonly meant the least concentration at which growth counts as inhibited. High values mean a need for much substance, low ones inhibition by little substance. On to `CCn1cc(C(=O)O)c(=O)c2cc(F)c(N3CCNCC3)cc21` [NORFLOXACIN], for which the MIC in assay [3] came out at 0.7 µg/mL (≈ 2.19 µM); in assay [4], 1.4 µg/mL (≈ 4.38 µM).

These data come from ChEMBL document CHEMBL1240316, “An oxidation-sensing mechanism is used by the global regulator MgrA in Staphylococcus aureus” (2006).
